Legend:
Format in all cases: in vivo
Lettuce = test: Post-emergence herbicidal effect on potted weeds; details: 2-3 true leaves, up to 5 mg/pot, scale 0 (dead plants) to 5 (healthy, as control)
Procedure: (§1) Weed seeds were sawn in 0.3-liter pots containing medium-heavy clay-loam soil from organic fields (55% clay, 23% silt, 20% sand, 2% organic matter, pH 7.1). The experiment was conducted in a completely randomized design. Each treatment was replicated three times (3 pots). Each compound was typically tested on a weed panel which included Amaranth, Abutilon, Malva, Silybum, and Sinapis. The herbicides were applied at doses from 0 (control) to 5 mg/pot. The herbicides were applied on grown plants at stage 2-3 true leaves (post-emergence treatment). The plants were grown in the mesh house during the entire experiment. Plant development at 6, 12, 19, 26, and 32 days after application (DAA) was evaluated on a scale of 0 to 5, in which 0 represents dead plants, and 5 represents healthy plants similar or not different from Control. In the context of the invention, the herbicidal effect was expressed as a score calculated as an average of assessments of plants' vigor, height, and leaf color.

Trifolium = test: Post-emergence herbicidal effect on potted weeds; details: 2-3 true leaves, up to 5 mg/pot, scale 0 (dead plants) to 5 (healthy, as control)
Procedure: as §1

Solanum = test: Post-emergence herbicidal effect on potted weeds; details: 2-3 true leaves, up to 5 mg/pot, scale 0 (dead plants) to 5 (healthy, as control)
Procedure: as §1

Malva = test: Post-emergence herbicidal effect on potted weeds; details: 2-3 true leaves, up to 5 mg/pot, scale 0 (dead plants) to 5 (healthy, as control)
Procedure: as §1

Lactuca = test: Post-emergence herbicidal effect on potted weeds; details: 2-3 true leaves, up to 5 mg/pot, scale 0 (dead plants) to 5 (healthy, as control)
Procedure: as §1

Abutilon = test: Post-emergence herbicidal effect on potted weeds; details: 2-3 true leaves, up to 5 mg/pot, scale 0 (dead plants) to 5 (healthy, as control)
Procedure: as §1

Amaranth = test: Post-emergence herbicidal effect on potted weeds; details: 2-3 true leaves, up to 5 mg/pot, scale 0 (dead plants) to 5 (healthy, as control)
Procedure: as §1

Silybum = test: Post-emergence herbicidal effect on potted weeds; details: 2-3 true leaves, up to 5 mg/pot, scale 0 (dead plants) to 5 (healthy, as control)
Procedure: as §1

Sinapis = test: Post-emergence herbicidal effect on potted weeds; details: 2-3 true leaves, up to 5 mg/pot, scale 0 (dead plants) to 5 (healthy, as control)
Procedure: as §1

Verbesina = test: Post-emergence herbicidal effect on potted weeds; details: 2-3 true leaves, up to 5 mg/pot, scale 0 (dead plants) to 5 (healthy, as control)
Procedure: as §1

Lettuce seeds = test: Filter paper bioassay on germination and early development of Lettuce seeds; details: lowest concentration causing malformation of radicle or shoots, visually assessed six days after beginning, 0 to 1 mmol/l; for minimal effective concentration: 144 h, read-out: MEC, score (Minimal Effective Concentration, activity score) (converted)
Procedure: Materials: Seeds of Lettuce R. (Super-Jericho, non-sterilized) were obtained from Ben Shahar Moshe Ltd., 99% purity. The test compounds listed in Table 3 below were synthesized de novo or purchased from different vendors. Bioassays: Filter Paper Bioassays with Lettuce seeds were performed following Bertin et al. 2009 with modifications as described below. Seeds were placed on Whatman no. 1 filter paper (Whatman, Middlesex, U.K.) in Petri dishes (10 seeds per plate) with 2.0 ml of an aqueous solution of test material in a concentration ranging from 0 (control) to 1 mmol/l. The Petri dishes were arranged in a tray tilted at a 45-degree angle and were kept in the dark for 48 hours. Then trays with plates were transferred to the growth chamber with a 6/18 dark/light cycle for four days. Each experiment was performed in at least two repeats.
The development of plants' radicles and shoots was visually assessed six days after the beginning of the test to determine the Minimal Effective Concentration (MEC) of a test material. In the context of the invention, MEC is defined as the lowest concentration level of a test material that caused deviation (malformation of radicle or shoots).

Row | SMILES | Average Herbicidal Effect, score (Lettuce) | Average Herbicidal Effect, score (Trifolium) | Average Herbicidal Effect, score (Solanum) | Average Herbicidal Effect, score (Malva) | Average Herbicidal Effect, score (Lactuca) | Average Herbicidal Effect, score (Abutilon) | Average Herbicidal Effect, score (Amaranth) | Average Herbicidal Effect, score (Silybum) | Average Herbicidal Effect, score (Sinapis) | Average Herbicidal Effect, score (Verbesina) | activity score (Lettuce seeds) | minimal effective concentration (Lettuce seeds)
1 | CCOCCOCCOC(=O)COc1ccc(F)c(Br)n1 [compound 7156, 2-(2-ethoxyethoxy)ethyl 2-[(6-bromo-5-fluoropyridin-2-yl)oxy]acetate] | 0 | 2 | 0 | 1 | 2 | 1 | 1 | 1 | 1 | 1 | 5.5 score | –
2 | CCOC(=O)COc1ccc(F)c(Br)n1 [compound 7118, ethyl [(6-bromo-5-fluoropyridin-2-yl)oxy]acetate] | 5 | 2 | 0 | 1 | 3 | 4 | 1 | 1 | 1 | 2 | – | < 1 µM
3 | O=C(O)COc1ccc(F)c(Br)n1 [compound 7157, [(6-bromo-5-fluoropyridin-2-yl)oxy]acetic acid] | 1 | 2 | 0 | 1 | 2 | 3 | 0 | 1 | 1 | 0 | – | 1 µM

— US20250374926A1, “NOVEL DERIVATIVES OF NON-CODED AMINO ACIDS AND THEIR USE IN CROP PROTECTION” (FORTEPHEST LTD., priority 2022, published 2025)
